In patent publication US6914045B2, “Glycopeptide antibiotics” (Wyeth Holdings Corporation, priority 2001, dated 2005):
Converted amounts (≈) assume the structure as drawn. Like-named read-outs stand apart in the source and are kept apart here.

Assays:
[1] = system: Staphylococcus aureus-SMITH (GC 4543); assay: acute lethal infection in mice; assay type: in vivo; conditions: Staphylococcus, read-out: median effective dose (ED50), Staphylococcus aureus-SMITH (GC 4543)
In short: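 Protocol: bacteria suspended in trypticase soy broth or hog gastric mucin injected ip into female CD-1 mice at a level killing untreated controls in 24-48 hr; compound given iv in saline or 5% dextrose 30 min post-challenge; five mice per dose; ED50 derived from pooled 7 day survival of three runs.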

Streptococcus sp. = assay: in vitro antibacterial evaluation, MIC by broth dilution; assay type: cell-based; conditions: broth dilution, 18 hours at 35° C.
In short: (§1)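 Broth dilution per NCCLS standard M7-A2 in Muller-Hinton II […], with an inoculum of 5×10^5 CFU/mL and antibiotic spanning 64-0.06 μg/mL. The MIC is the lowest concentration that inhibits growth of the organism.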

Staphylococcus sp. = assay: as above; assay type: cell-based; conditions: broth dilution, 18 hours at 35° C.
In short: as §1

Escherichia coli = assay: as above; assay type: cell-based; conditions: 18 hours at 35° C.
In short: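 Step 1: dilute antibiotic across 64-0.06 μg/mL in Muller-Hinton II […]. Step 2: inoculate at 5×10^5 CFU/mL.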

Enterococcus sp. = assay: as above; assay type: cell-based; conditions: broth dilution, 18 hours at 35° C.
In short: as §1

[2] = system: Gram-positive bacteria comprised of Staphylococcus sp., Streptococcus sp. and Enterococcus sp.; assay: in vitro antibacterial evaluation, MIC by broth dilution (strain not given); assay type: cell-based
Method: Methods for in vitro Antibacterial Evaluation (Table 1)
The minimum inhibitory concentration (MIC), the lowest concentration of the antibiotic which inhibits growth of the test organism, is determined by the broth dilution method using Muller-Hinton II […] (Baltimore Biological Laboratories) following the recommendations of the National Committee for Clinical Laboratory Standards [Methods for dilution antimicrobial susceptibility tests for bacteria that grow aerobically, approved standard M7-A2, National Committee for Clinical Laboratory Standards, Villanova, Pa.].
An inoculum level of 5×10^5 CFU/mL, and a range of antibiotic concentrations (64-0.06 μg/mL) is used. […] The test organisms include a spectrum of Gram-positive bacteria comprised of Staphylococcus sp., Streptococcus sp. and Enterococcus sp. These organisms include recent clinical isolates that are resistant to methicillin, penicillin and/or vancomycin.

Work on CC(c1ccccc1)[C@@H]1NC(=O)CNC(=O)[C@H](CO)NC(=O)[C@H](C(O)C2CNC(=N)N2)NC(=O)[C@H](C(O)C2CNC(=N)N2)NC(=O)[C@H](Cc2ccc(O)cc2)NC1=O (stereo partly drawn) [Example 280b, Cyclo[glycyl-β-methylphenylalanyltyrosyl-3-(2-iminoimidazolidin-4-yl)seryl-3-(2-iminoimidazolidin-4-yl)serylseryl]] yielded an ED50 [1] greater than 8 mg/kg, an MIC (Streptococcus sp.; strain ATCC 6301, read-out: MIC Streptococcus pneumoniae (ATCC 6301)) of 32 mg/L (≈ 39.6 µM) and an MIC (Streptococcus sp.; strain GC 1894, read-out: MIC Streptococcus pneumoniae (GC 1894)) of 64 mg/L (≈ 79.1 µM). The MIC (Streptococcus sp.; strain GC 4563, read-out: MIC Streptococcus pyogenes (GC 4563)) was 64 mg/L (≈ 79.1 µM), the MIC (Streptococcus sp.; strain GC 4564, read-out: MIC Streptococcus agalactiae (GC 4564)) was 128 mg/L (≈ 158 µM) and the MIC (Streptococcus sp.; strain GC 4565, read-out: MIC Streptococcus pneumoniae (GC 4565)) was 128 mg/L (≈ 158 µM). For the same molecule, the MIC (Staphylococcus sp.; Staphylococcus, read-out: MIC Coagulase Negative Staphylococcus (GC 4547)) was 32 mg/L (≈ 39.6 µM), the MIC (Staphylococcus sp.; Staphylococcus, read-out: MIC Coagulase Negative Staphylococcus (GC 4548)) was 128 mg/L (≈ 158 µM) and the MIC (Staphylococcus sp.; Staphylococcus, read-out: MIC Coagulase Negative Staphylococcus (GC 4549)) was 32 mg/L (≈ 39.6 µM). The MIC (Staphylococcus sp.; Staphylococcus, read-out: MIC Coagulase Negative Staphylococcus (GC 4551)) was 128 mg/L (≈ 158 µM), the MIC (Staphylococcus sp.; Staphylococcus, read-out: MIC Coagulase Negative Staphylococcus (GC 6257)) was 32 mg/L (≈ 39.6 µM) and the MIC (Staphylococcus sp.; Staphylococcus, read-out: MIC Staphylococcus aureus-SMITH (GC 4543)) was 64 mg/L (≈ 79.1 µM). It also gave an MIC (Staphylococcus sp.; read-out: MIC Staphylococcus aureus (ATCC 29213)) of 128 mg/L (≈ 158 µM), an MIC (Staphylococcus sp.; read-out: MIC Staphylococcus aureus (GC 1131)) greater than 128 mg/L and an MIC (Staphylococcus sp.; read-out: MIC Staphylococcus aureus (GC 3051)) of 128 mg/L (≈ 158 µM). The MIC (Staphylococcus sp.; read-out: MIC Staphylococcus aureus (GC 3053)) was greater than 128 mg/L, the MIC (Staphylococcus sp.; read-out: MIC Staphylococcus aureus (GC 4541)) was 128 mg/L (≈ 158 µM) and the MIC (Staphylococcus sp.; read-out: MIC Staphylococcus aureus (GC 4542)) was 128 mg/L (≈ 158 µM). For the same molecule, the MIC (Staphylococcus sp.; read-out: MIC Staphylococcus aureus (GC 4544)) was 128 mg/L (≈ 158 µM), the MIC (Staphylococcus sp.; read-out: MIC Staphylococcus aureus (GC 4545)) was 64 mg/L (≈ 79.1 µM) and the MIC (Staphylococcus sp.; read-out: MIC Staphylococcus haemolyticus (GC 4546)) was 32 mg/L (≈ 39.6 µM). For the same molecule, the “MIC Staphylococcus aureus (ATCC 29213)” value (Staphylococcus sp.; strain ATCC 29213) was 128 mg/L (≈ 158 µM), the “MIC Staphylococcus aureus (GC 1131)” value (Staphylococcus sp.; strain GC 1131) was greater than 128 mg/L and the “MIC Staphylococcus aureus (GC 3051)” value (Staphylococcus sp.; strain GC 3051) was 128 mg/L (≈ 158 µM). The “MIC Staphylococcus aureus (GC 3053)” value (Staphylococcus sp.; strain GC 3053) was greater than 128 mg/L, the “MIC Staphylococcus aureus (GC 4541)” value (Staphylococcus sp.; strain GC 4541) was 128 mg/L (≈ 158 µM) and the “MIC Staphylococcus aureus (GC 4542)” value (Staphylococcus sp.; strain GC 4542) was 128 mg/L (≈ 158 µM). The “MIC Staphylococcus aureus (GC 4544)” value (Staphylococcus sp.; strain GC 4544) was 128 mg/L (≈ 158 µM), the “MIC Staphylococcus aureus (GC 4545)” value (Staphylococcus sp.; strain GC 4545) was 64 mg/L (≈ 79.1 µM) and the “MIC Staphylococcus haemolyticus (GC 4546)” value (Staphylococcus sp.; strain GC 4546) was 32 mg/L (≈ 39.6 µM). The “MIC Coagulase Negative Staphylococcus (GC 4547)” value (Staphylococcus sp.; strain GC 4547) was 32 mg/L (≈ 39.6 µM), the “MIC Coagulase Negative Staphylococcus (GC 4548)” value (Staphylococcus sp.; strain GC 4548) was 128 mg/L (≈ 158 µM) and the “MIC Coagulase Negative Staphylococcus (GC 4549)” value (Staphylococcus sp.; strain GC 4549) was 32 mg/L (≈ 39.6 µM). The “MIC Coagulase Negative Staphylococcus (GC 4551)” value (Staphylococcus sp.; strain GC 4551) was 128 mg/L (≈ 158 µM), the “MIC Coagulase Negative Staphylococcus (GC 6257)” value (Staphylococcus sp.; strain GC 6257) was 32 mg/L (≈ 39.6 µM) and the “MIC Staphylococcus aureus-SMITH (GC 4543)” value (Staphylococcus sp.; strain SMITH GC 4543) was 64 mg/L (≈ 79.1 µM). It also gave an MIC (Escherichia coli; ATCC25922, Escherichia coli (ATCC 25922), read-out: MIC, Escherichia coli (ATCC 25922)) of 32 mg/L (≈ 39.6 µM), an MIC (Escherichia coli; Escherichia coli (GC 4559), read-out: MIC, Escherichia coli (GC 4559)) of 16 mg/L (≈ 19.8 µM) and an MIC (Escherichia coli; Escherichia coli (GC 4560), read-out: MIC, Escherichia coli (GC 4560)) of 32 mg/L (≈ 39.6 µM). For the same molecule, the MIC (Enterococcus sp.; Enterococcus avium (GC 4558), read-out: MIC, Enterococcus avium (GC 4558)) was 128 mg/L (≈ 158 µM), the MIC (Enterococcus sp.; Enterococcus faecalis (ATCC 29212), read-out: MIC, Enterococcus faecalis (ATCC 29212)) was greater than 128 mg/L and the MIC (Enterococcus sp.; Enterococcus faecalis (GC 4553), read-out: MIC, Enterococcus faecalis (GC 4553)) was greater than 128 mg/L. For the same molecule, the MIC (Enterococcus sp.; Enterococcus faecalis (GC 4554), read-out: MIC, Enterococcus faecalis (GC 4554)) was greater than 128 mg/L, the MIC (Enterococcus sp.; Enterococcus faecalis (GC 6189), read-out: MIC, Enterococcus faecalis (GC 6189)) was greater than 128 mg/L and the MIC (Enterococcus sp.; Enterococcus faecium (GC 2243), read-out: MIC, Enterococcus faecium (GC 2243)) was 128 mg/L (≈ 158 µM). It also gave an MIC (Enterococcus sp.; Enterococcus faecium (GC 4556), read-out: MIC, Enterococcus faecium (GC 4556)) greater than 128 mg/L, an MIC (Enterococcus sp.; Enterococcus faecium (GC 4557), read-out: MIC, Enterococcus faecium (GC 4557)) of 64 mg/L (≈ 79.1 µM) and an MIC (Enterococcus sp.; strain ATCC 29212, read-out: MIC Enterococcus faecalis (ATCC 29212)) greater than 128 mg/L. The MIC (Enterococcus sp.; strain GC 2242, read-out: MIC Enterococcus faecalis (GC 2242)) was greater than 128 mg/L, the MIC (Enterococcus sp.; strain GC 2243, read-out: MIC Enterococcus faecium (GC 2243)) was 128 mg/L (≈ 158 µM) and the MIC (Enterococcus sp.; strain GC 2691, read-out: MIC Enterococcus faecalis (GC 2691)) was greater than 128 mg/L. For the same molecule, the MIC (Enterococcus sp.; strain GC 3059, read-out: MIC Enterococcus faecalis (GC 3059)) was greater than 128 mg/L, the MIC (Enterococcus sp.; strain GC 4552, read-out: MIC Enterococcus faecalis (GC 4552)) was greater than 128 mg/L and the MIC (Enterococcus sp.; strain GC 4553, read-out: MIC Enterococcus faecalis (GC 4553)) was greater than 128 mg/L. It also gave an MIC (Enterococcus sp.; strain GC 4554, read-out: MIC Enterococcus faecalis (GC 4554)) greater than 128 mg/L, an MIC (Enterococcus sp.; strain GC 4556, read-out: MIC Enterococcus faecium (GC 4556)) greater than 128 mg/L and an MIC (Enterococcus sp.; strain GC 4557, read-out: MIC Enterococcus faecium (GC 4557)) of 64 mg/L (≈ 79.1 µM). The MIC (Enterococcus sp.; strain GC 4558, read-out: MIC Enterococcus avium (GC 4558)) was 128 mg/L (≈ 158 µM), the MIC (Enterococcus sp.; strain GC 6189, read-out: MIC Enterococcus faecalis (GC 6189)) was greater than 128 mg/L and the MIC ([2]; Table 2 section r2574-r2600, column 1, 18 hours at 35° C., read-out: MIC, strain of column 1) was 128 mg/L (≈ 158 µM). For the same molecule, the MIC ([2]; Table 2 section r2574-r2600, column 2, 18 hours at 35° C., read-out: MIC, strain of column 2) was 64 mg/L (≈ 79.1 µM), the MIC ([2]; Table 2 section r2574-r2600, column 3, 18 hours at 35° C., read-out: MIC, strain not given) was 128 mg/L (≈ 158 µM) and the MIC ([2]; Table 2 section r2574-r2600, column 5, 18 hours at 35° C., read-out: MIC, strain of column 5) was 64 mg/L (≈ 79.1 µM). The MIC ([2]; Table 2 section r2574-r2600, column 7, 18 hours at 35° C., read-out: MIC, strain not given) was greater than 128 mg/L, the MIC ([2]; Table 2 section r2574-r2600, column 9, 18 hours at 35° C., read-out: MIC, strain of column 9) was greater than 128 mg/L and the MIC ([2]; Table 2 section r2574-r2600, column 10, 18 hours at 35° C., read-out: MIC, strain of column 10) was greater than 128 mg/L.
